This note sets out measurements from ChEMBL document CHEMBL2151020, “JBIR-129 and -139, cytotoxic 34-membered polyol macrolides of microbial origin” (J Nat Prod, 2012).

For orientation: IC50 means the concentration that inhibits the measured activity by half. Read a high IC50 as weaker potency in that assay.

SMILES strings stand for the structures.

This assay deals with SK-OV-3. Put plainly: Cytotoxicity against human SKOV3 cells after 72 hrs by WST8 assay. The class given is functional, cell-based. The conditions noted are these: SK-OV-3, 72 h.
Consider `CCC(O[C@H]1CC[C@H](O[C@H]2CC[C@H](O)[C@@H](C)O2)[C@@H](C)O1)C(C)C(O)C(C)C(O)C(C)C1C/C=C/C=C/C(O)CC(O)C(C)C(O)CC(O[C@@H]2O[C@H](CO)[C@H](O)[C@H](O)[C@H]2NC(C)=O)C(C)C2CC(O)C(O)C(O)(CC(O[C@@H]3O[C@H](C)[C@@H](O)[C@H](O[C@H]4C[C@@H](O)[C@H](O)[C@@H](C)O4)[C@H]3O[C@@H]3O[C@H](C)[C@@H](O)[C@H](O)[C@H]3O)C(C)CCC(O)CC(O)C/C=C/C=C/C(=O)O1)O2` (stereo partly drawn), for which half-maximal inhibition (IC50) required 400 nM.
The figure for `COc1cccc2c1C(=O)c1c(O)c3c(c(O)c1C2=O)C[C@@](O)(C(=O)CO)C[C@@H]3O[C@H]1C[C@H](N)[C@H](O)[C@H](C)O1` [DOXORUBICIN] is 30 nM.
`CCC(O[C@H]1CC[C@H](O[C@H]2CC[C@H](O)[C@@H](C)O2)[C@@H](C)O1)C(C)C(O)C(C)C(O)C(C)C1C/C=C/C=C/C(O)CC(O)C(C)C(O)CC(O)C(C)C2CC(O)C(O)C(O)(CC(O[C@@H]3O[C@H](C)[C@@H](O)[C@H](O[C@H]4C[C@@H](O)[C@H](O)[C@@H](C)O4)[C@H]3O[C@@H]3O[C@H](C)[C@@H](O)[C@H](O)[C@H]3O)C(C)CCC(O)CC(O)C/C=C/C=C/C(=O)O1)O2` (stereo partly drawn) displayed a half-maximal inhibitory concentration (IC50) of 300 nM.
